In US9809598B2 (Merck Patent GmbH, priority 2014, dated 2017):
Read-outs that look alike come from different tables or passages of the source.

Experiments:
PARP-1 = molecular target: T1, PARP-1 (Homo sapiens, UniProt P09874); test: PARP-1 autoparsylation assay (HTRF); format: biochemical; details: His-tagged Parp-1, autoparsylation HTRF
T1 construct: purchased Enzo Life Sciences GmbH, Lörrach, Germany
From the text: Description of the PARP1 Assay
Biochemical Activity Testing of PARP-1: Autoparsylation Assay
The autoparsylation assay is run in two steps: the enzymatic reaction in which His-tagged Parp-1 transfers biotinylated ADP-ribose/ADP-ribose to itself from biotinylated NAD/NAD as co-substrate and the detection reaction where a time resolved FRET between cryptate labelled anti-His antibody bound to the His tag of the enzyme and Xlent® labelled-streptavidin bound the biotin-parsylation residue is analysed. The autoparsylation activity is detectable directly via the increase in HTRF signal.
The autoparsylation assay is performed as 384-well HTRF® (Cisbio, Codolet, France) assay format in Greiner low volume nb 384-well microtiter plates. […] The ratio of the emission signals is determined. The full value used is the inhibitor-free reaction. The pharmacological zero value used is Olaparib (LClabs, Woburn, US) in a final concentration of 1 μM. The inhibitory values (IC50) are determined using either the program Symyx Assay Explorer® or Condosseo® from GeneData.

TNKS2 = molecular target: T2, TNKS2 (Homo sapiens, UniProt Q9H2K2); test: TNKS2 activity ELISA (autoparsylation assay); format: biochemical
T2 construct: GST-tagged Tnks-2 (873-1166 aa, prepared in-house); made in house
Protocol: (§1) Description of the TNKS1 and TNKS2 ELISA Assay
(§2) Biochemical Activity Testing of TNKS 1 and 2: Activity ELISA (Autoparsylation Assay)
(§3) For analysis of autoparsylation activity of TNKS 1 and 2 an activity ELISA iss performed: In the first step GST tagged TNKS is captured on a Glutathione coated plate. Then the activity assay with biotinylated NAD is performed in the absence/presence of the compounds. During the enzymatic reaction GST tagged TNKS transfers biotinylated ADP-ribose to itself from biotinylated NAD as co-substrate. For the detection streptavidin-HRP conjugate is added that binds to the biotinylated TNKS and is thereby captured to the plates. The amount of biotinylated resp. autoparsylated TNKS is detected with a luminescence substrate for HRP. The level of the luminescence signal correlats directly with the amount of autoparsylated TNKS and therefore with activity of TNKS.
(§4) The activity ELISA is performed in 384 well Glutathione coated microtiter plates (Express capture Glutathione coated plate, Biocat, Heidelberg, Germany). The plates are pre-equilibrated with PBS. […] The plates are washed 3 times with PBS-Tween-20. The wells are blocked by incubation at room temperature for 20 minutes with 50 μl blocking buffer (PBS, 0.05% Tween-20, 0.5% BSA). Afterwards the plates are washed 3 times with PBS-Tween-20. […] The reaction is stopped by 3 times washing with PBS-Tween-20. For the detection 50 μl of 20 ng/μl Streptavidin, HRP conjugate (MoBiTec, Göttingen, Germany) in PBS/0.05% Tween-20/0.01% BSA are added and the plates are incubated for 30 minutes at room temperature. After three times washing with PBS-Tween-20 50 μl of SuperSignal ELISA Femto Maximum sensitivity substrate solution (ThermoFisherScientific (Pierce), Bonn, Germany) are added. Following a 1 minute incubation at room temperature luminescence signals are measured with an Envision multimode reader (Perkin Elmer LAS Germany GmbH) at 700 nm. The full value used is the inhibitor-free reaction. […] The inhibitory values (IC50) are determined using either the program Symyx Assay Explorer® or Condosseo® from GeneData.

Tankyrases = details: read-out: EC50 [M] TNKS cellular assay; DLD1 cells, 24 hours, Axin2 increase
Protocol: Measurement of Cellular Inhibition of Tankyrase
Cells of the colon carcinoma cell line DLD1 are plated in 96 well plates with 1.5×10^4 cells per well. Next day, cells are treated with a serial dilution of test compound in seven steps as triplicates with a final DMSO concentration of 0.3%. […] The amount of isolated Axin2 protein is determined in a Luminex^200 machine (Luminex Corporation) according to the manufacturer's instruction by counting 100 events per well. […] As controls cells are treated with solvent alone (neutral control) and with a Tankyrase reference inhibitor IWR-2 (3E−06 M) which refers as control for maximum increase of Axin2. For analysis, the obtained data are normalized against the untreated solvent control and fitted for determination of the EC50 values using the Assay Explorer software (Accelrys).

TNKS1 = molecular target: T3, TNKS1 (Homo sapiens, UniProt O95271); test: TNKS1 activity ELISA (autoparsylation assay); format: biochemical; details: GST-tagged Tnks-1 (1023-1327 aa)
T3 construct: GST-tagged Tnks-1 (1023-1327 aa, prepared in-house); made in house
Protocol: as §1, §2, §3, §4

[1] = GST-tagged Tnks-2 (873-1166 aa), read-out: IC50 [M] TNKS2 ELISA

T1 sequence (P09874 whole entry): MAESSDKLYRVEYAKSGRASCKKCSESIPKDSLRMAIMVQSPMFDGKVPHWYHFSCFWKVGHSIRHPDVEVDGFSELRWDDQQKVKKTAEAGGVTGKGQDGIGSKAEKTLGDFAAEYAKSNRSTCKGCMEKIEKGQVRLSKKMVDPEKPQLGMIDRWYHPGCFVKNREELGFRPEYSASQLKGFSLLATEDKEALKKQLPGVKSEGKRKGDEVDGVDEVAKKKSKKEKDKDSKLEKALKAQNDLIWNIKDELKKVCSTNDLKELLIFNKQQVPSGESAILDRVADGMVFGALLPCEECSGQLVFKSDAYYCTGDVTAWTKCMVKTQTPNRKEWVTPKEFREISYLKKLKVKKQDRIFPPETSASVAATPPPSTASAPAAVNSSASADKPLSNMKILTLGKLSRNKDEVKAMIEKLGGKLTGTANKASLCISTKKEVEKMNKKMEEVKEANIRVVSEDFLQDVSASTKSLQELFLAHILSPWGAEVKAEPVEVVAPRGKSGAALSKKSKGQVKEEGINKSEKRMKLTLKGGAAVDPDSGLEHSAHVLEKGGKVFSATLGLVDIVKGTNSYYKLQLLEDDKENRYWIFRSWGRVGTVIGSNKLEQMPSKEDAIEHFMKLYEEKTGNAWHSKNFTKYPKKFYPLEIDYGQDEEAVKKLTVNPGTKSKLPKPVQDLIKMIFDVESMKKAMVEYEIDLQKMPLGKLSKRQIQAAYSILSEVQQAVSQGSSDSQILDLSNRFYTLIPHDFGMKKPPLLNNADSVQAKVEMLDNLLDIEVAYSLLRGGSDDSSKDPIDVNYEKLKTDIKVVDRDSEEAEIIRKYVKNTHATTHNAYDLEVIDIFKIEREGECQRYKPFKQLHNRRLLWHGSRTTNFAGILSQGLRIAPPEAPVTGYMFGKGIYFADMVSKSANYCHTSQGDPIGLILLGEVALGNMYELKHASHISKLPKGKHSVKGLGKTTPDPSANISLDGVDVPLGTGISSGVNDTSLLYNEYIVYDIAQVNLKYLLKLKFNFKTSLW
T3 sequence (O95271 1023-1327): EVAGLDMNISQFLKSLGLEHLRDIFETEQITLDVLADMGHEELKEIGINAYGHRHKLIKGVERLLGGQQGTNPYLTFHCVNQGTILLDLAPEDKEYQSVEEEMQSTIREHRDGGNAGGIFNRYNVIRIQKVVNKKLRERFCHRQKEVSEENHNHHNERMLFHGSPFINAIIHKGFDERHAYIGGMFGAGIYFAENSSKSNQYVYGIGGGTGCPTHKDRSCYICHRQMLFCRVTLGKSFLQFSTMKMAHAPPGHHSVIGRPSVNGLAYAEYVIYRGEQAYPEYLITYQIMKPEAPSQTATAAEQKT
T2 sequence (Q9H2K2 873-1166): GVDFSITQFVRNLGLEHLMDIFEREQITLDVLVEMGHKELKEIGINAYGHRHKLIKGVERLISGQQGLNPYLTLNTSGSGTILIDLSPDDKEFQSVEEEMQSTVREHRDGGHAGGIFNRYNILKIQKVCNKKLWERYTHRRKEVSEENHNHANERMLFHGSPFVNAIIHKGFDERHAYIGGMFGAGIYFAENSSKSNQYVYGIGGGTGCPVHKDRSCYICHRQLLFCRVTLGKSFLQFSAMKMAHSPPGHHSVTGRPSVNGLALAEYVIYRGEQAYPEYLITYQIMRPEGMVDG

Structure (SMILES) | IC50 (PARP-1) [nM] | IC50 (TNKS2; [1]) [M] | EC50 (Tankyrases) [M] | IC50 (TNKS1) [nM] | IC50 (TNKS2) [M]
COc1ccc(C(=O)C2CCN(C(=O)CCCc3cn4c(C)ccc4c(=O)[nH]3)CC2)cc1C [Compound C3, 3-{4-[4-(4-Methoxy-3-methyl-benzoyl)-piperidin-1-yl]-4-oxo-butyl}-6-methyl-2H-pyrrolo[1,2-a]pyrazin-1-one] | 820 | 1.7e-10 | 2.9e-10 | 0.14 | –
N#Cc1ccc(OC2CCN(C(=O)CCCc3cn4cccc4c(=O)[nH]3)CC2)cc1 [Compound C5, 4-{1-[4-(1-Oxo-1,2-dihydro-pyrrolo[1,2-a]pyrazin-3-yl)-butyryl]-piperidin-4-yloxy}-benzonitrile] | 4300 | 8.8e-09 | 1.2e-07 | 0.13 | –
O=C(CCCc1cn2cccc2c(=O)[nH]1)N1CCC(c2nnc(-c3ccccc3)o2)CC1 [Compound C6, 3-{4-Oxo-4-[4-(5-phenyl-[1,3,4]oxadiazol-2-yl)-piperidin-1-yl]-butyl}-2H-pyrrolo[1,2-a]pyrazin-1-one] | 3700 | 1.3e-09 | 2.8e-08 | 1.9 | –
Cc1ccc2c(=O)[nH]c(CCCC(=O)N3CCC(Oc4ccc(C#N)cc4)CC3)cn12 [Compound C7, 4-{1-[4-(6-Methyl-1-oxo-1,2-dihydro-pyrrolo[1,2-a]pyrazin-3-yl)-butyryl]-piperidin-4-yloxy}-benzonitrile] | 1800 | 2e-09 | 4.7e-08 | 2.6 | –
COc1ccc(C(=O)C2CCN(C(=O)CCCc3cn4cc(C)cc4c(=O)[nH]3)CC2)cc1 [Compound C8, 3-{4-[4-(4-Methoxy-benzoyl)-piperidin-1-yl]-4-oxo-butyl}-7-methyl-2H-pyrrolo[1,2-a]pyrazin-1-one] | 2900 | 1.6e-10 | 2.8e-09 | < 0.1 | –
COc1ccc(C(=O)C2CCN(C(=O)CCCc3cn4c(Cl)ccc4c(=O)[nH]3)CC2)cc1 [Compound C11, 6-Chloro-3-{4-[4-(4-methoxy-benzoyl)-piperidin-1-yl]-4-oxo-butyl}-2H-pyrrolo[1,2-a]pyrazin-1-one] | 2700 | 1.6e-10 | 9e-10 | 0.14 | –
COc1ccc(C(=O)C2CCN(C(=O)CCCc3cn4cccc4c(=O)[nH]3)CC2)cn1 [Compound C15, 3-{4-[4-(6-Methoxy-pyridine-3-carbonyl)-piperidin-1-yl]-4-oxo-butyl}-2H-pyrrolo[1,2-a]pyrazin-1-one] | 1700 | 1.7e-10 | 1.5e-09 | 0.23 | –
Cn1cc(C(=O)C2CCN(C(=O)CCCc3cn4cccc4c(=O)[nH]3)CC2)cn1 [Compound C22, 3-{4-[4-(1-Methyl-1H-pyrazole-4-carbonyl)-piperidin-1-yl]-4-oxo-butyl}-2H-pyrrolo[1,2-a]pyrazin-1-one] | 5200 | 3e-10 | 4.5e-09 | 0.25 | –
COc1ccc(C(=O)C2CCN(C(=O)CCCc3cn4c(C)cnc4c(=O)[nH]3)CC2)cc1 [Compound C32, 6-{4-[4-(4-Methoxybenzoyl)-1-piperidyl]-4-oxo-butyl}-3-methyl-7H-imidazo[1,2-a]pyrazin-8-one] | 17000 | 1.4e-10 | – | 0.12 | –
COc1ccc(C(=O)C2CCN(C(=O)CCCc3cn4c(C)ncc4c(=O)[nH]3)CC2)cc1 [Compound C33, 6-{4-[4-(4-Methoxy-benzoyl)-piperidin-1-yl]-4-oxo-butyl}-3-methyl-7H-imidazo[1,5-a]pyrazin-8-one] | 5500 | 1.2e-10 | 1.5e-09 | 0.16 | –
COc1ccc(C(=O)C2CCN(C(=O)CCCc3nc4c(C)scc4c(=O)[nH]3)CC2)cc1 [Compound C34, 2-{4-[4-(4-Methoxy-benzoyl)-piperidin-1-yl]-4-oxo-butyl}-7-methyl-3H-thieno[3,4-d]pyrimidin-4-one] | 1100 | 3.3e-10 | 4.8e-09 | 0.54 | –
COc1ccc(C(=O)C2CCN(C(=O)CCCc3nc4c(C)csc4c(=O)[nH]3)CC2)cc1 [Compound C35, 2-{4-[4-(4-Methoxy-benzoyl)-piperidin-1-yl]-4-oxo-butyl}-7-methyl-3H-thieno-[3,2-d]pyrimidin-4-one] | 130 | 1.1e-10 | 4.2e-10 | 0.19 | –
COc1ccc(C(=O)C2CCN(C(=O)CCCc3nn4cccc4c(=O)[nH]3)CC2)cc1 [Compound C36, 2-{4-[4-(4-Methoxy-benzoyl)-piperidin-1-yl]-4-oxo-butyl}-3H-pyrrolo[2,1-f][1,2,4]triazin-4-one] | 3500 | 2.8e-10 | 4.1e-09 | 0.39 | –
COc1ccc(C(=O)C2CCN(C(=O)CCCc3nn4c(C)ccc4c(=O)[nH]3)CC2)cc1 [Compound C37, 2-{4-[4-(4-Methoxybenzoyl)-piperidin-1-yl]-4-oxo-butyl}-7-methyl-3H-pyrrolo[2,1-f][1,2,4]triazin-4-one] | 620 | < 1e-10 | 1e-09 | < 0.1 | –
COc1ccc(C(=O)C2CCN(C(=O)CCCc3nn4cc(C)cc4c(=O)[nH]3)CC2)cc1 [Compound C38, 2-{4-[4-(4-Methoxy-benzoyl)-piperidin-1-yl]-4-oxo-butyl}-6-methyl-3H-pyrrolo[2,1-f][1,2,4]triazin-4-one] | 2400 | 1.1e-10 | 5.4e-09 | 0.28 | –
COc1ccc(C(=O)C2CCN(C(=O)CCCc3nn4cc(F)cc4c(=O)[nH]3)CC2)cc1 [Compound C39, 6-Fluoro-2-{4-[4-(4-methoxy-benzoyl)-piperidin-1-yl]-4-oxo-butyl}-3H-pyrrolo[2,1-f][1,2,4]triazin-4-one] | 2100 | 3.7e-10 | 3.1e-09 | 0.18 | –
COc1ccc(C(=O)C2CCN(C(=O)CCCc3nc4c(ccn4C)c(=O)[nH]3)CC2)cc1 [Compound C40, 2-{4-[4-(4-Methoxy-benzoyl)-piperidin-1-yl]-4-oxo-butyl}-7-methyl-3,7-dihydro-pyrrolo[2,3-d]pyrimidin-4-one] | 1600 | < 1e-10 | 3.2e-09 | 0.17 | –
Cn1ncc2c(=O)[nH]c(CCCC(=O)N3CCC(c4cnc(N)c(C#N)c4)CC3)nc21 [Compound C44, 6-Amino-1′-[4-(1-methyl-4-oxo-4,5-dihydro-1H-pyrazolo[3,4-d]pyrimidin-6-yl)-butyryl]-1′,2′,3′,4′,5′,6′-hexahydro-[3,4′]bipyridinyl-5-carbonitrile] | 18000 | 9.7e-10 | 4e-07 | 1.6 | –
O=C(CCCc1nc2c(c(=O)[nH]1)COCC2)N1CCC(c2nnc(-c3ccccc3)o2)CC1 [Compound C196, 2-{4-Oxo-4-[4-(5-phenyl-[1,3,4]oxadiazol-2-yl)-piperidin-1-yl]-butyl}-3,5,7,8-tetrahydro-pyrano[4,3-d]pyrimidin-4-one] | 6500 | – | 2e-06 | – | 5.7e-08
Cc1ccc2c(=O)[nH]c(CCCC(=O)N3CCC(C(=O)c4cnn(C(C)C)c4)CC3)cn12 [Compound C211, 3-{4-[4-(1-Isopropyl-1H-pyrazole-4-carbonyl)-piperidin-1-yl]-4-oxo-butyl}-6-methyl-2H-pyrrolo[1,2-a]pyrazin-1-one] | 14000 | – | 1.4e-08 | – | 2.8e-10
CC(C)n1cc(C(=O)C2CCN(C(=O)CCCc3cn4c(F)ccc4c(=O)[nH]3)CC2)cn1 [Compound C212, 6-Fluoro-3-{4-[4-(1-isopropyl-1H-pyrazole-4-carbonyl)-piperidin-1-yl]-4-oxo-butyl}-2H-pyrrolo[1,2-a]pyrazin-1-one] | 5600 | 1.3e-09 | – | 0.39 | –
